Legend:
Assay in all cases: relative viability (nuclei count vs DMSO), 5 days (fraction); higher = more cells survive
COR-L 105 = system: COR-L 105
Outline: (§1)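 Dosing by pin tool came one day after lung cancer cell lines were seeded in 1536-well plates, using either one drug or a fixed anchor-drug dose plus five library-drug doses (not always all listed) in √10 steps. After 5 days, nuclei were counted on 4× images. Relative viability is treated-well nuclei count divided by vehicle-well nuclei count, and values are medians of duplicate plates.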

NCI-H650 = system: NCI-H650
Outline: as §1

NCI-H1993 = system: NCI-H1993
Outline: as §1

LXF-289 = system: LXF-289
Outline: as §1

H3255 = system: H3255
Outline: as §1

NCI-H2087 = system: NCI-H2087
Outline: as §1

HCC-78 = system: HCC-78
Outline: as §1

NCI-H2126 = system: NCI-H2126
Outline: as §1

EMC-BAC-2 = system: EMC-BAC-2
Outline: as §1

HOP-62 = system: HOP-62
Outline: as §1

SK-MES-1 = system: SK-MES-1
Outline: as §1

NCI-H1563 = system: NCI-H1563
Outline: as §1

201T = system: 201T
Outline: as §1

LC-2-ad = system: LC-2-ad
Outline: as §1

UMC-11 = system: UMC-11
Outline: as §1

BEN = system: BEN
Outline: as §1

NCI-H1395 = system: NCI-H1395
Outline: as §1

RERF-LC-KJ = system: RERF-LC-KJ
Outline: as §1

HARA = system: HARA
Outline: as §1

LU99A = system: LU99A
Outline: as §1

LOU-NH91 = system: LOU-NH91
Outline: as §1

CN1CCN(CCOc2cc(OC3CCOCC3)c3c(Nc4c(Cl)ccc5c4OCO5)ncnc3c2)CC1 [Saracatinib] + C[C@]1(O)C[C@@H](c2nc(-c3ccc4ccc(-c5ccccc5)nc4c3)c3c(N)nccn32)C1 [Linsitinib] (partner 1 µM)
relative viability (COR-L 105; first compound 0.02 µM): 0.872
relative viability (COR-L 105; first compound 0.2 µM): 1.02
relative viability (COR-L 105; first compound 0.6325 µM): 0.63
relative viability (COR-L 105; first compound 2 µM): 0.58
relative viability (NCI-H650; first compound 0.02 µM): 0.94
relative viability (NCI-H650; first compound 0.2 µM): 0.885
relative viability (NCI-H650; first compound 0.6325 µM): 0.838
relative viability (NCI-H650; first compound 2 µM): 0.98
relative viability (NCI-H1993; first compound 0.02 µM): 0.682
relative viability (NCI-H1993; first compound 0.2 µM): 0.715
relative viability (NCI-H1993; first compound 2 µM): 0.621
relative viability (LXF-289; first compound 0.02 µM): 0.979
relative viability (LXF-289; first compound 0.2 µM): 0.92
relative viability (LXF-289; first compound 0.6325 µM): 0.968
relative viability (LXF-289; first compound 2 µM): 0.963
relative viability (H3255; first compound 0.02 µM): 0.994
relative viability (H3255; first compound 0.2 µM): 0.986
relative viability (H3255; first compound 0.6325 µM): 0.647
relative viability (H3255; first compound 2 µM): 0.233
relative viability (NCI-H2087; first compound 0.02 µM): 1.11
relative viability (NCI-H2087; first compound 0.2 µM): 0.947
relative viability (NCI-H2087; first compound 0.6325 µM): 1.2
relative viability (NCI-H2087; first compound 2 µM): 1.12
relative viability (HCC-78; first compound 0.02 µM): 0.52
relative viability (HCC-78; first compound 0.2 µM): 0.505
relative viability (HCC-78; first compound 0.6325 µM): 0.753
relative viability (HCC-78; first compound 2 µM): 0.497
relative viability (NCI-H2126; first compound 0.02 µM): 0.74
relative viability (NCI-H2126; first compound 0.2 µM): 0.649
relative viability (NCI-H2126; first compound 0.6325 µM): 0.612
relative viability (NCI-H2126; first compound 2 µM): 0.549
relative viability (EMC-BAC-2; first compound 0.02 µM): 0.813
relative viability (EMC-BAC-2; first compound 0.2 µM): 0.775
relative viability (EMC-BAC-2; first compound 0.6325 µM): 0.642
relative viability (EMC-BAC-2; first compound 2 µM): 0.497
relative viability (HOP-62; first compound 0.02 µM): 1.02
relative viability (HOP-62; first compound 0.2 µM): 0.731
relative viability (HOP-62; first compound 0.6325 µM): 1.35
relative viability (HOP-62; first compound 2 µM): 1.01
relative viability (SK-MES-1; first compound 0.02 µM): 0.934
relative viability (SK-MES-1; first compound 0.2 µM): 0.903
relative viability (SK-MES-1; first compound 0.6325 µM): 0.87
relative viability (SK-MES-1; first compound 2 µM): 0.471
relative viability (NCI-H1563; first compound 0.02 µM): 1.09
relative viability (NCI-H1563; first compound 0.2 µM): 1.16
relative viability (NCI-H1563; first compound 0.6325 µM): 1.05
relative viability (NCI-H1563; first compound 2 µM): 0.891
relative viability (201T; first compound 0.02 µM): 1.05
relative viability (201T; first compound 0.2 µM): 0.927
relative viability (201T; first compound 0.6325 µM): 0.91
relative viability (201T; first compound 2 µM): 0.809
relative viability (LC-2-ad; first compound 0.02 µM): 0.971
relative viability (LC-2-ad; first compound 0.6325 µM): 0.689
relative viability (LC-2-ad; first compound 2 µM): 0.541
relative viability (UMC-11; first compound 0.02 µM): 1.09
relative viability (UMC-11; first compound 0.6325 µM): 0.956
relative viability (UMC-11; first compound 2 µM): 0.8
relative viability (BEN; first compound 0.02 µM): 0.991
relative viability (BEN; first compound 0.2 µM): 0.914
relative viability (BEN; first compound 0.6325 µM): 1.15
relative viability (BEN; first compound 2 µM): 0.64
relative viability (NCI-H1395; first compound 0.02 µM): 1.08
relative viability (NCI-H1395; first compound 0.2 µM): 0.995
relative viability (NCI-H1395; first compound 0.6325 µM): 1.27
relative viability (NCI-H1395; first compound 2 µM): 0.876
relative viability (RERF-LC-KJ; first compound 0.02 µM): 0.938
relative viability (RERF-LC-KJ; first compound 0.2 µM): 0.83
relative viability (RERF-LC-KJ; first compound 0.6325 µM): 0.883
relative viability (RERF-LC-KJ; first compound 2 µM): 0.813
relative viability (HARA; first compound 0.02 µM): 0.917
relative viability (HARA; first compound 0.6325 µM): 0.787
relative viability (HARA; first compound 2 µM): 0.629
relative viability (LU99A; first compound 0.02 µM): 0.575
relative viability (LU99A; first compound 0.2 µM): 0.372
relative viability (LU99A; first compound 0.6325 µM): 0.465
relative viability (LU99A; first compound 2 µM): 0.411
relative viability (LOU-NH91; first compound 0.02 µM): 0.901
relative viability (LOU-NH91; first compound 0.2 µM): 0.603
relative viability (LOU-NH91; first compound 0.6325 µM): 0.594
relative viability (LOU-NH91; first compound 2 µM): 0.518

— the supplement of paper PMC10307832
